# From patent US4710489A, “Glutathione delivery system” (Cornell Research Foundation, Inc., priority 1985, dated 1987)
# Legend:
# [1] = test system: GSH levels in the liver and in the kidney; assay: GSH levels in liver and kidney after 35S-labeled test compound, GSH synthesis inhibited by buthionine sulfoximine (Example 5); format: in vivo; conditions: mice, i.p. 7.5 mmol/kg, two hours after treatment, buthionine sulfoximine 2 mmol/kg 14 and 4 hours before dissection
# Description: Groups of 3 or 4 mice, each having a body weight of 18 to 22g, were starved over a period of 12 hours and treated intraperitoneally with a dose of 7.5 mmol/kg of the test compound labeled by ^35 S (GSH labeled by ^35 S was used as the starting material). Two hours after the treatment, the test mice were dissected, and the liver and kidney were taken out. These organs were homogenized in 5 fold volume of 5% sulfosalicylic acid and centrifuged over a period of 5 minutes to give 0.05 ml of a supernatant fluid. The supernatant fluid was admixed with 0.95 ml of water and 4 ml of monofluorine scintillation fluid, and the ^35 S content was assayed by the use of an LKB scintillation counter. On the other hand, the supernatant fluid was treated with monobromobimane and subjected to HPLC to determine the amount of the test compound. The intracellular GSH synthesis was inhibited by administering intraperitoneally 2 mmol/kg of buthionine sulfoximine 14 hours and 4 hours before the dissection.
# [2] = test system: GSH level in the liver and in the kidney; assay: GSH level in liver and kidney of starved mice (Example 6); format: in vivo; conditions: i.p. 10 mmol/kg, 2 to 3 hours after the administration
# Description: The test compound was dissolved in sterile water to give a test solution. Groups of 3 mice, each having a body weight of 20 to 25 g, were starved over a period of 24 hours and treated intraperitoneally with a dose of 10 mmol/kg of the test compound. Mice were dissected by every two hours, and the liver and kidney were taken out. GSH analysis was performed on each of the organs.
# [3] = test system: GSH level in the liver; assay: GSH level in the liver after sublethal acetaminophen (Example 7); format: in vivo; conditions: acetaminophen 2.5 mmol/kg i.p.; for GSH level in the liver: starved mice, test compound 10 mmol/kg i.p. half an hour later
# Description: Groups of three starved mice were intraperitoneally treated with 2.5 mmol/kg (less than the lethal dose) of acetaminophen, and half an hour later 10 mmol/kg of the test compound was intraperitoneally administered to the mice. […] When other thiols such as L-cysteine and L-cysteine methyl ester were administered under the same conditions, the GSH level in the liver was markedly low.
# [4] = test system: mice; assay: Survival of starved mice after lethal dose of acetaminophen (Example 8); format: in vivo; conditions: acetaminophen 5 mmol/kg i.p., test compound 10 mmol/kg one hour later, 15 mice, 7 days
# Excerpt: Starved mice were intraperitoneally treated with 5 mmol/kg (lethal dose) of acetaminophen and, one hour later, with 10 mmol/kg of the test compound.
# [5] = test system: glutamic-pyruvic acid transaminase (GPT) activity in serum; assay: Serum GPT activity after acetaminophen (Example 9, Table 1); format: in vivo, Male ICR mice; conditions: half an hour after acetaminophen 2.5 mmol/kg, blood 8 hours after acetaminophen, ± SD
# Description: Male ICR mice, each having a body weight of 30 to 40 g, were starved over a period of 15 hours and intraperitoneally treated with 2.5 mmol/kg of acetaminophen. The acetaminophen was used as a solution in Cremophore buffer (i.e. physiological saline solution containing 10% Cremophore and 1.5% ethanol). Half an hour later a designed amount of the test compound was intraperitoneally administered to the mice. The test compound was used as a solution in physiological saline adjusted to pH 6.5. […] Then, the glutamic-pyruvic acid transaminase (GPT) activity in serum was assayed. The results are shown in Table 1 as a percentage to that of the control group to which only acetaminophen was administered.
# Note: Figure is a percentage of blood GPT activity to that of Control
# Group (± Standard Deviation (n = 4 - 16)).
# [6] = test system: glutathione level of the liver and kidney; assay: Glutathione levels of liver and kidney of fasted mice given glutathione ester or glutathione (Example 1, Comparative Example 1); format: in vivo; conditions: for glutathione in the kidney / glutathione level of the liver: fasted mice, i.p. 10 millimoles per kilogram, 2 hours after administration, vs saline controls
# Description: A solution of the glutathione ester was prepared in aseptic water. […] At intervals of 2 hours, as shown in FIGS. 1(a) and (b), the animals were decapitated and the liver and kidney tissues were removed and analyzed for glutathione. Using groups of 3 mice each, values are given as means ±S.D.
# [7] = test system: level of liver glutathione; conditions: for glutathione level of the liver: fasted mice, acetaminophen 2.5 mmol/kg i.p., test compound 10 mmol/kg one-half hour later
# Description: In this example, fasted mice were injected intraperitoneally with acetaminophen (2.5 mmol/kg), and one-half hour later (indicated by arrow in FIG. 3), they were given GSH monomethyl ester, GSH, L-cysteine, L-cysteine methyl ester (10 mmol/kg) or an equivalent volume of 0.15 M NaCl (control). Tissue GSH levels were determined at the indicated intervals on groups (3) of mice; values are means ±S.D.
# [8] = test system: mice
# [9] = test system: glutathione levels of the liver and kidney; assay: Glutathione levels of liver and kidney of mice pretreated with buthionine sulfoximine (Example 2); format: in vivo
# Excerpt: Controls were again given saline, with tissue levels of GSH being determined at the indicated intervals. Values are means ±S.D., using groups of 3 mice each.
# [10] = buthionine sulfoximine 2 mmol/kg, before ester
# [11] = mice pretreated with 2 mmol/kg buthionine sulfoximine, ester 10 mmol/kg i.p. 4 hours after the inhibitor
compound,measurement,setting,value
"CCCCCCOC(=O)CNC(=O)[C@H](CS)NC(=O)CC[C@H](N)C(=O)O [GSH mono-n-hexyl ester, n-Hexyl γ-L-glutamyl-L-cysteinylglycinate]",GSH level in the kidney,[1],more than 2.0 μmol/g
same,GSH level in the liver,[1],more than 1.0 μmol/g
same,GSH level in the kidney,[2],substantial elevation
same,GSH level in the liver,[2],substantial elevation
same,GSH level in the liver,[3],marked elevation
same,survival,[4],survived
same,percentage of blood GPT activity to that of Control Group,[5]; Dosage 0.01 mmol/kg i.p.,100.6 ± 31.3%
same,percentage of blood GPT activity to that of Control Group,[5]; Dosage 0.03 mmol/kg i.p.,82.3 ± 33.5%
same,percentage of blood GPT activity to that of Control Group,[5]; Dosage 0.1 mmol/kg i.p.,60.6 ± 15.8%
same,percentage of blood GPT activity to that of Control Group,[5]; Dosage 0.3 mmol/kg i.p.,13.2 ± 0.3%
same,percentage of blood GPT activity to that of Control Group,[5]; Dosage 1 mmol/kg i.p.,3.0 ± 0.3%
"CC(C)COC(=O)CNC(=O)[C@H](CS)NC(=O)CC[C@H](N)C(=O)O [GSH monoisobutyl ester, Isobutyl γ-L-glutamyl-L-cysteinylglycinate]",GSH level in the kidney,[1],more than 2.0 μmol/g
same,GSH level in the liver,[1],more than 1.0 μmol/g
same,GSH level in the kidney,[2],substantial elevation
same,GSH level in the liver,[2],substantial elevation
same,GSH level in the liver,[3],marked elevation
same,survival,[4],survived
same,percentage of blood GPT activity to that of Control Group,[5]; Dosage 0.01 mmol/kg i.p.,84.1 ± 13.0%
same,percentage of blood GPT activity to that of Control Group,[5]; Dosage 0.1 mmol/kg i.p.,44.8 ± 14.8%
same,percentage of blood GPT activity to that of Control Group,[5]; Dosage 1 mmol/kg i.p.,3.6 ± 0.4%
"CC(C)OC(=O)CNC(=O)[C@H](CS)NC(=O)CC[C@H](N)C(=O)O [GSH monoisopropyl ester, Isopropyl γ-L-glutamyl-L-cysteinylglycinate]",GSH level in the kidney,[1],more than 2.0 μmol/g
same,GSH level in the liver,[1],more than 1.0 μmol/g
same,GSH level in the kidney,[2],substantial elevation
same,GSH level in the liver,[2],substantial elevation
same,GSH level in the liver,[3],marked elevation
same,survival,[4],survived
same,percentage of blood GPT activity to that of Control Group,[5]; Dosage 0.01 mmol/kg i.p.,75.2 ± 15.0%
same,percentage of blood GPT activity to that of Control Group,[5]; Dosage 0.03 mmol/kg i.p.,51.2 ± 15.6%
same,percentage of blood GPT activity to that of Control Group,[5]; Dosage 0.1 mmol/kg i.p.,19.8 ± 7.9%
same,percentage of blood GPT activity to that of Control Group,[5]; Dosage 0.3 mmol/kg i.p.,8.8 ± 3.5%
same,percentage of blood GPT activity to that of Control Group,[5]; Dosage 1 mmol/kg i.p.,3.8 ± 0.5%
"N[C@@H](CCC(=O)N[C@@H](CS)C(=O)NCC(=O)O)C(=O)O [GSH, L-γ-glutamyl-L-cysteinyl-glycine, reference compound]",glutathione in the kidney,[6],only a slight effect
same,glutathione level of the liver,[6],no effect
same,GSH level in the kidney,[1],0.560 µmol/g
same,GSH level in the liver,[1],0.582 µmol/g
same,GSH level in the kidney,[2],slight elevation
same,GSH level in the liver,[2],No elevation
same,percentage of blood GPT activity to that of Control Group,[5]; Dosage 0.1 mmol/kg i.p.,105.3 ± 20.1%
same,percentage of blood GPT activity to that of Control Group,[5]; Dosage 0.3 mmol/kg i.p.,68.5 ± 16.3%
same,percentage of blood GPT activity to that of Control Group,[5]; Dosage 1 mmol/kg i.p.,4.2 ± 0.5%
"COC(=O)[C@@H](N)CS [L-cysteine methyl ester, reference compound]",glutathione level of the liver,[7],much less
same,GSH level in the liver,[3],markedly low
"N[C@@H](CS)C(=O)O [L-cysteine, reference compound]",glutathione level of the liver,[7],much less
same,GSH level in the liver,[3],markedly low
"CC(=O)Nc1ccc(O)cc1 [acetaminophen, reference compound]",level of liver glutathione after acetaminophen alone,"[7]; sublethal dose 2.5 mmol/kg i.p., control given 0.15 M NaCl",marked decrease
same,GSH level in the liver after acetaminophen alone,[3]; control group given 0.15 M saline,Marked fall
same,lethality of acetaminophen alone,"[8]; 5 mmole per kilogram, 40 mice, within 7 days",all of the mice died
"CCCCS(=N)(=O)CCC(N)C(=O)O (centres unmarked) [buthionine sulfoximine, reference compound]",glutathione level of the kidney after the inhibitor,[9]; [10],decreased to a very low value
same,glutathione level of the liver after the inhibitor,[9]; [10],decreased to a very low value
"CCOC(=O)CNC(=O)[C@H](CS)NC(=O)CC[C@H](N)C(=O)O [glutathione monoethyl ester, L-γ-Glutamyl-L Cysteinyl Glycyl Ethyl Ester]",effects on tissue glutathione levels compared with glutathione monomethyl ester,[6]; comparison of monoethyl with monomethyl ester,about the same
COC(=O)CNC(=O)[C@H](CS)NC(=O)CC[C@H](N)C(=O)O [glutathione monomethyl ester],glutathione in the kidney,[6],increased substantially
same,glutathione level of the liver,[6],increased substantially
same,glutathione level in kidney,[9]; [11],substantial increase
same,glutathione level in liver,[9]; [11],substantial increase
same,glutathione level of the liver,[7],increased markedly
same,fatalities,"[8]; acetaminophen 5 mmole per kilogram, ester 10 mmole per kilogram 1 hour later, 15 mice, 7 days",no fatalities
